According to the NIST ThermoML archive (doi:10.1021/acs.jced.9b00436):
Where “and” joins values, the source holds several entries; their conditions need not be identical. Equal values may be shown once.

How the values were obtained:
[1] = an = ratio of the nth substance listed; conditions: 100 kPa, Liquid; for viscosity: Falling or rolling sphere viscometry; for speed of sound: Frequency=5 MHz, Single path-length method; for mass density: Vibrating tube method
[2] = 100 kPa, Liquid, Frequency=5 MHz, Single path-length method
[3] = xn = mol fraction of the nth substance listed; conditions: 308 K; 100 kPa; Liquid; Frequency=5 MHz; Single path-length method; x2 = 0.333

C[N+](C)(C)CCO.[Cl-] [choline chloride] + OCC(O)CO
[1], a2 = 2
Conditions | mass density [kg/m3] | speed of sound [m/s] | viscosity [mPa·s]
293 K | 1194.3 | 1987 | 473
298 K | 1191.7 | 1975 | 364.4
303 K | 1188.5 | 1963 | 246.8
308 K | 1185.5 | 1952 | 193.8
313 K | 1182.7 | 1941 | 133.4
318 K | 1179.3 | 1932 | 110.4
323 K | 1177 | 1923 | 81.6
328 K | 1173.1 | 1910 | 70.2
333 K | 1171.3 | 1900 | 53.8

C[N+](C)(C)CCO.[Cl-] [choline chloride] + OCCO
[1], a2 = 2
Conditions | mass density [kg/m3] | speed of sound [m/s] | viscosity [mPa·s]
293 K | 1117.1 | 1896 | 50
298 K | 1114.5 | 1882 | 40.4
303 K | 1111.4 | 1871 | 33.6
308 K | 1108.6 | 1860 | 27.9
313 K | 1105.7 | 1848 | 23.6
318 K | 1102.6 | 1837 | 19.9
323 K | 1100.1 | 1826 | 17.2
328 K | 1096.7 | 1813 | 14.6
333 K | 1094.7 | 1802 | 12.8

CCCCCCCCCC(=O)O [decanoic acid] + CCCCCCCCCCCCCC[P+](CCCCCC)(CCCCCC)CCCCCC.[Cl-]
[1], a1 = 2
Conditions | mass density [kg/m3] | speed of sound [m/s] | viscosity [mPa·s]
293 K | 898.5 | 1437 | 346.3
298 K | 895.4 | 1418 | 260.5
303 K | 893.2 | 1402 | 197.8
308 K | 888.6 | 1384 | 151.6
313 K | 885.4 | 1366 | 117.9
318 K | 881.9 | 1349 | 93.7
323 K | 879.1 | 1333 | 76
328 K | 877.1 | 1314 | 62.8
333 K | 874.9 | 1303 | 52.8

CCCCCCCCCCCCCCCC [hexadecane]
[2]
Conditions | speed of sound [m/s]
293 K | 1356
298 K | 1340
303 K | 1325
313 K | 1287
318 K | 1268
323 K | 1248
328 K | 1227
333 K | 1210

CCCCCCCC[N+](C)(CCCCCCCC)CCCCCCCC.[Br-] [methyltrioctylammonium bromide] + CCCCCCCCCC(=O)O
[1], a2 = 2
Conditions | mass density [kg/m3] | speed of sound [m/s] | viscosity [mPa·s]
293 K | 945.4 | 1406 | 806
298 K | 942.2 | 1393 | 572.6
303 K | 939.9 | 1375 | 411.4
308 K | 935.2 | 1357 | 305.2
313 K | 931.9 | 1341 | 226.2
318 K | 928.3 | 1326 | 171.5
323 K | 925.3 | 1312 | 132.4
328 K | 923.1 | 1297 | 104.5
333 K | 920.8 | 1283 | 83.7

O=C(O)CC(=O)O [propanedioic acid] + C[N+](C)(C)CCO.[Cl-]
[1]
Conditions | mass density, a1 = 1 [kg/m3] | speed of sound, a1 = 2 [m/s] | viscosity, a1 = 2 [mPa·s]
293 K | 1185.1 | – | –
298 K | 1182.1 | – | –
303 K | 1178.6 | 1876 | 1128.6
308 K | 1175.6 | 1863 | 812.9
313 K | 1172.3 | 1851 | 597.3
318 K | 1169.1 | 1838 | 446.1
323 K | 1166 | 1825 | 342.3
328 K | 1162.7 | 1812 | –
333 K | 1160.3 | 1799 | –

CCCCCCCC[N+](CCCCCCCC)(CCCCCCCC)CCCCCCCC.[Br-] [tetraoctylammonium bromide] + CCCCCCCCCC(=O)O
[1], a2 = 2
Conditions | mass density [kg/m3] | speed of sound [m/s] | viscosity [mPa·s]
293 K | 933.7 | 1416 | 908.9
298 K | 930.6 | 1402 | 648
303 K | 928.4 | 1382 | 472
308 K | 923.7 | 1365 | 350
313 K | 920.5 | 1347 | 264.3
318 K | 916.9 | 1331 | 201.1
323 K | 913.9 | 1317 | 156.9
328 K | 911.8 | 1301 | 123.4
333 K | 909.5 | 1287 | 98.4

NC(N)=O [urea] + C[N+](C)(C)CCO.[Cl-]
[1], a1 = 2
Conditions | mass density [kg/m3] | speed of sound | viscosity [mPa·s]
293 K | 1200.1 | 2045 m/s | 1372
298 K | 1198.1 | 2035 m/s | 985.1
303 K | 1194.5 | 2027 m/s | 527.3
308 K | 1191.7 | 2020 m/s and 2018 m/s | 397.2
313 K | 1188.7 | 2009 m/s | 238.1
318 K | 1185.5 | 2002 m/s | 181.6
323 K | 1183.1 | 1992 m/s | 119.8
328 K | 1179.2 | 1983 m/s | 98.2
333 K | 1177.3 | 1976 m/s | 68.6

Conditions | speed of sound [m/s]
[3] | 2016

O [water]
[2]
Conditions | speed of sound [m/s]
298 K | 1501
303 K | 1511.5
313 K | 1527.5
318 K | 1535
323 K | 1542
328 K | 1547
333 K | 1550
